Laboratory results reported in ChEMBL document CHEMBL5729431, “Benzisoxazole sulfonamide derivatives” (2022).

Assays:
[1] = target: Histone acetyltransferase KAT5 (Homo sapiens, UniProt Q92993); test: (§1) Kat5 Assay: A. Compound preparation 1. Prepare 10 mM stock solutions in 100% DMSO from solid material 2. Serial dilute 10 mM, 1 mM or 0.1 mM compound stocks 3-fold in 100% DMSO for 11-point dose responseB. Reagent preparation 1. Prepare 1× assay buffer containing 10 mM Tris HCL pH 8.0, 2.5 mM NaCl, 0.5 mM EDTA, 0.005% BSG and 0.02% Tween-20 2. Dilute Histone peptide (CPC Scientific) and AcCoA (Sigma) together in assay buffer to 2×. 3. Dilute KAT enzyme in assay buffer to 2×.C. Enzyme reaction 1. Final reaction conditions for each KAT assay in a 20 ul assay reaction volume: KAT5 25 nM, 1 uM AcCoA, 2 uM H4 1-21 peptide, 30-minute reaction 2. Add 0.5 ul of diluted compound to the assay plate (384-well V-bottom polypropylene plates) or 0.5 ul of DMSO for control wells. 3. Add 10 ul of 2× Histone peptide/2×AcCoA mix to the assay plate. 4. Add 10 ul of 2× enzyme to the assay plate. 5. Stop the reaction after the indicated time with the addition of 2 ul of 5% formic acid 6. Each reaction was analyzed using self-assembled monolayer desorption/ionization time-of-flight mass spectrometry (Mrksich, Milan (2008) Mass Spectrometry of Self-Assembled Monolayers: A New Tool for Molecular Surface Science ACS Nano 2008 2 (1), 7-18; SAMDI Tech, Inc. (Chicago, Ill.)). 7. […]
[2] = target: Histone acetyltransferase KAT6A (Homo sapiens, UniProt Q92794); test: as §1, with “Kat6A Assay 1:” for “Kat5 Assay:”, “ii. KAT6A 15” for “KAT5 25”, “H3” for “H4”, “45-minute” for “30-minute”
Histone acetyltransferase KAT6A, sequence (Q92794 whole entry): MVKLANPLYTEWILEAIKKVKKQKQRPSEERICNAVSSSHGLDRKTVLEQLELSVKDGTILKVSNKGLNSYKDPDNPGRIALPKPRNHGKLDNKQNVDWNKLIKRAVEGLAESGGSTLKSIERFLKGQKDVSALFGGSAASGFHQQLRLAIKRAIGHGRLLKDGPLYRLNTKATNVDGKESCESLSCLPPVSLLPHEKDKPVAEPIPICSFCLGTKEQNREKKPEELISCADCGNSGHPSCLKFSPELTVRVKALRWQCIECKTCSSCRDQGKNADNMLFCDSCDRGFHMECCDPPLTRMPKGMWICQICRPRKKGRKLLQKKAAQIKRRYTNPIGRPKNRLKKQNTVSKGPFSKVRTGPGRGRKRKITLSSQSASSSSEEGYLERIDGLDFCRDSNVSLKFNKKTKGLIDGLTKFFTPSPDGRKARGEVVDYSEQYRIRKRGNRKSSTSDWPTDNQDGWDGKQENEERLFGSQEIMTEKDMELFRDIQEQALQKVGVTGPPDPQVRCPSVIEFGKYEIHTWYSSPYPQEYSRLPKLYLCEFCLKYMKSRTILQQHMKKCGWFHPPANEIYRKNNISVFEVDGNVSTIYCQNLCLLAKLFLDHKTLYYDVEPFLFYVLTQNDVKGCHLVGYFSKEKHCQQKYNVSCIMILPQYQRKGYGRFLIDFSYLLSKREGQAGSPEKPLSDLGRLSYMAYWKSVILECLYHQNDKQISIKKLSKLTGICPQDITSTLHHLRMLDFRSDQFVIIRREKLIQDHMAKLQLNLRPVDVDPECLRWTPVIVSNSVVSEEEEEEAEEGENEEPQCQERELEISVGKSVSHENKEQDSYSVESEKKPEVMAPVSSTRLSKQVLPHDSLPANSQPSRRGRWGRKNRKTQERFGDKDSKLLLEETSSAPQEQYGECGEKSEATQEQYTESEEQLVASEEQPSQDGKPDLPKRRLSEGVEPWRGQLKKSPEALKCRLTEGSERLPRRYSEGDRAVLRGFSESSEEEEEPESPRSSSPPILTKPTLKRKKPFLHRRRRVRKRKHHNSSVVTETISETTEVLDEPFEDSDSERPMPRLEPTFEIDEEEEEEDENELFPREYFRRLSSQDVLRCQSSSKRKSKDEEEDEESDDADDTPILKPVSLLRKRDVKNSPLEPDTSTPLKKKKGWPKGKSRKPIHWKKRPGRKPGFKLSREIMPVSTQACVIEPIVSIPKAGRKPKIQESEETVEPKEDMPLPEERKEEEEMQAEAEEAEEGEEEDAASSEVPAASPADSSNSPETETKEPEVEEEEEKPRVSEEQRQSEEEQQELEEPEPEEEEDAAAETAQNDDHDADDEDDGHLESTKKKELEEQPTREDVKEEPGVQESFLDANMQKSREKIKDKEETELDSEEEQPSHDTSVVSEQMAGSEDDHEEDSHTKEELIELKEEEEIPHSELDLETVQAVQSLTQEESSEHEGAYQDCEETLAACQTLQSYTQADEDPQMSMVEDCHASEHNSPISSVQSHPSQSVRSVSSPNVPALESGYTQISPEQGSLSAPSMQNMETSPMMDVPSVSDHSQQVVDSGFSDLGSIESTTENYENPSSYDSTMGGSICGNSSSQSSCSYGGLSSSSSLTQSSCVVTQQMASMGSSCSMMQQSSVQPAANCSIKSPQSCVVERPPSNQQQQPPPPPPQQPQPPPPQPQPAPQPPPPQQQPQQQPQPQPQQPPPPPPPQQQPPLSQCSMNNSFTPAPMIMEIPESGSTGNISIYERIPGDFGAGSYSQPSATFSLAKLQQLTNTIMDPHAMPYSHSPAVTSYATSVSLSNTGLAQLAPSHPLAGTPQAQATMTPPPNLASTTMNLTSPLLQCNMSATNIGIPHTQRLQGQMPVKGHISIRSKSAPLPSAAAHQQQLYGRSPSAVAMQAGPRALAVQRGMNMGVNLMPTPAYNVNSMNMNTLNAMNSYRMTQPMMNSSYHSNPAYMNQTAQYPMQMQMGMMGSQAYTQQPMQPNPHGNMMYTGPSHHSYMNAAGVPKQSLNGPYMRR

[3] = target: Histone acetyltransferase KAT6B (Homo sapiens, UniProt Q8WYB5); test: as §1, with “Kat6B Assay 1:” for “Kat5 Assay:”, “KAT6B” for “KAT5”, “H3” for “H4”, “60-minute” for “30-minute”
Histone acetyltransferase KAT6B, sequence (Q8WYB5 whole entry): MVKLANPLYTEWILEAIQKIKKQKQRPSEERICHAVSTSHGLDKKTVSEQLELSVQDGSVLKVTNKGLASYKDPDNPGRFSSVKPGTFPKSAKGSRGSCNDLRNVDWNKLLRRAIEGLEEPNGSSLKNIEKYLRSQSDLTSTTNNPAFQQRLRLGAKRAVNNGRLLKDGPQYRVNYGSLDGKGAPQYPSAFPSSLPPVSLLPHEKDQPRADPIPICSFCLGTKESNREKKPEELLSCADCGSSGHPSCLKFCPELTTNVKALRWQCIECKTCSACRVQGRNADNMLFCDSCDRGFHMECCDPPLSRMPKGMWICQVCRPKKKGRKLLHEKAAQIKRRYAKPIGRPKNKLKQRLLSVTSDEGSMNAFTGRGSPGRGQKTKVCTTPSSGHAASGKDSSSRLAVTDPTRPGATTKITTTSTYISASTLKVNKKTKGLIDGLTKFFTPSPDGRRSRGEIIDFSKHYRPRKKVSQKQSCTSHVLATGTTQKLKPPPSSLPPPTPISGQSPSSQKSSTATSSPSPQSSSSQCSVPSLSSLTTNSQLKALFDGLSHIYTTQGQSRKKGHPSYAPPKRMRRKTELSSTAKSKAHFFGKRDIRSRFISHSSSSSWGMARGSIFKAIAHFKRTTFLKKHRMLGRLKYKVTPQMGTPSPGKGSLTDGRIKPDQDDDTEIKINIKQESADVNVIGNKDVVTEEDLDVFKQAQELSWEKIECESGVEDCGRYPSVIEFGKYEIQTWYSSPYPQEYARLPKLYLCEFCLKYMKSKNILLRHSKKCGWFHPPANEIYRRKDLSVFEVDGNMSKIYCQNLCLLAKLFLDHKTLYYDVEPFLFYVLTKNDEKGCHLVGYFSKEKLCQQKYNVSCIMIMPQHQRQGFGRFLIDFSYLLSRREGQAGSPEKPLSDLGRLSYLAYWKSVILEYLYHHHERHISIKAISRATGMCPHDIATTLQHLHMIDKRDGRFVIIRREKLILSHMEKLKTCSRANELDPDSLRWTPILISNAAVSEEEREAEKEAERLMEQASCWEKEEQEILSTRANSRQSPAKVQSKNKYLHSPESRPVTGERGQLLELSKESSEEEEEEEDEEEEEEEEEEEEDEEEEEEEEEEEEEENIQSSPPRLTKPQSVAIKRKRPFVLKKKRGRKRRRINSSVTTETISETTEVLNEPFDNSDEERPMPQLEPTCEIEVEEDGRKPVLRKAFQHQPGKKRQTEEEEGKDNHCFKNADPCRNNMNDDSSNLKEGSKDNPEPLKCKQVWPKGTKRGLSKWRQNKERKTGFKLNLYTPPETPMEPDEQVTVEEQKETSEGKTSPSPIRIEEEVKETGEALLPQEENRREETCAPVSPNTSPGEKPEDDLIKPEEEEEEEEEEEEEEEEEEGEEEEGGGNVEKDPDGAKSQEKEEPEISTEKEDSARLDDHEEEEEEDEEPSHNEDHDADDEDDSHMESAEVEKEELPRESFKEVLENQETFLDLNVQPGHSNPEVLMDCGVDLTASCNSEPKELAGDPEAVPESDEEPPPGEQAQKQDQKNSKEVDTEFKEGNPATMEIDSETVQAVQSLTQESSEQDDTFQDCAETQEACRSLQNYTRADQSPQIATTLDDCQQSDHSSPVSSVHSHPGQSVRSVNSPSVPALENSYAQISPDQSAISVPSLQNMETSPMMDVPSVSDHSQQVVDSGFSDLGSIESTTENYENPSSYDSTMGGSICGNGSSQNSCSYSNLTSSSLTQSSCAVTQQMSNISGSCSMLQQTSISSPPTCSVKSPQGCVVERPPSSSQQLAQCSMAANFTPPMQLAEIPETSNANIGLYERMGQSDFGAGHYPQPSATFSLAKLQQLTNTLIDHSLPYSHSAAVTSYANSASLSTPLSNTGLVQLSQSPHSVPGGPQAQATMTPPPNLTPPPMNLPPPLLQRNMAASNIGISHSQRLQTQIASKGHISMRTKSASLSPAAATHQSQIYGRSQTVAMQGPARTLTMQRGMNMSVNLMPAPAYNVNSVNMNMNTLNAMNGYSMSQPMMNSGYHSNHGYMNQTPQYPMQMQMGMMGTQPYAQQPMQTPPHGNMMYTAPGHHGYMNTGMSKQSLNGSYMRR

[4] = target: T1, Histone acetyltransferase KAT8 (Homo sapiens, UniProt Q9H7Z6); test: as §1, with “Kat8” for “Kat5”, “TBDA.” for “A.”, “KAT8 15” for “KAT5 25”, “H3” for “H4”, “45-minute” for “30-minute”
T1 sequence (Q9H7Z6 whole entry): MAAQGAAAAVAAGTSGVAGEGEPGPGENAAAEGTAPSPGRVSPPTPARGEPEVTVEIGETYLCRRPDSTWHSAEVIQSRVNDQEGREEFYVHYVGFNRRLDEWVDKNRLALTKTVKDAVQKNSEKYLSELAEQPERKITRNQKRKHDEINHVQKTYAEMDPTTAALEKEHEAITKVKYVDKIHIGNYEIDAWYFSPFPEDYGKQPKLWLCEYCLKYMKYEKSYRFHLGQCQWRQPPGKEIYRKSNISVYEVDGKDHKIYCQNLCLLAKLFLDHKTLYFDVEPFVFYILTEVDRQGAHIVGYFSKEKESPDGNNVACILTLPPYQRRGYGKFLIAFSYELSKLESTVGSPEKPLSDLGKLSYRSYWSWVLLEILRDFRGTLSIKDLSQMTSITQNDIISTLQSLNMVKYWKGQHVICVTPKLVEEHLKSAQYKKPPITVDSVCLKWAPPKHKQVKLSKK

[5] = target: Histone acetyltransferase KAT7 (Homo sapiens, UniProt O95251); test: as §1, with “Kat7” for “Kat5”, “KAT7 12.5” for “KAT5 25”, “H3” for “H4”, “45-minute” for “30-minute”
Histone acetyltransferase KAT7, sequence (O95251 whole entry): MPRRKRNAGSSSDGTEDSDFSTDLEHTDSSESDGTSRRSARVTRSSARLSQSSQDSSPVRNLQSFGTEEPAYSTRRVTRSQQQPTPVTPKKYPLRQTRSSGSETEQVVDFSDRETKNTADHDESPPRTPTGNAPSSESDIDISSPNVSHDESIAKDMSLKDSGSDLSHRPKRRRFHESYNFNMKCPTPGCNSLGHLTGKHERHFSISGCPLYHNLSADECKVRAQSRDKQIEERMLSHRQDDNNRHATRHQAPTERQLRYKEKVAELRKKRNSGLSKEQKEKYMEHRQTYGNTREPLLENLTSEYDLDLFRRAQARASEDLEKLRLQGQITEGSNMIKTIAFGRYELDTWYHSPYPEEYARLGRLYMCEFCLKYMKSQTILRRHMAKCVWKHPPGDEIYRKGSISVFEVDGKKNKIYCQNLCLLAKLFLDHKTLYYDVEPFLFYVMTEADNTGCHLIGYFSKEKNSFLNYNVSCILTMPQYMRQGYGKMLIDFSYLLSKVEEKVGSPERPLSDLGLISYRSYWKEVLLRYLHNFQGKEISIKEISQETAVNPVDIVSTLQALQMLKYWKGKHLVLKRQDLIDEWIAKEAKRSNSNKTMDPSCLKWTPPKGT

Which results are given for `COc1cc(Cn2cccn2)cc2onc(NS(=O)(=O)c3ccccc3)c12`?
Ki [1]: 5.98 µM; Ki [2]: 0.0103 µM; Ki [3]: 0.0608 µM; Ki [4]: 20.6 µM; Ki [5]: 0.9 µM
